Laboratory results: patent US20030099944A1, “Combination therapy involving drugs which target cellular proteins and drugs which target pathogen-encoded proteins” (priority 1998, published 2003)
Where two headings read alike, the source gives them in different places.

How the values were obtained:
HEL cells [1] = test system: HEL cells
HSV-1 strain KOS = assay: HSV-1 replication in HEL cells, standard plaque assay; type: cell-based, herpes simplex virus type 1; details: 24 hours, 40 μM Rosco, 75 μM iso-Olo, 20 μM Lova, 5 ng/ml staurosporine, 70 μM PD98059
[2] = test system: ICP0 promoter (pWRICP0-CAT); type: cell-based, herpes simplex virus type 1; details: for effect on virion-induced IE gene expression: cultures treated 24 hours prior to infection; for Fold-induction of CAT activity: mock-infected, value (SEM)
HEL cells [3] = assay: Cell-cycle progression by FACS analysis, HEL cells; type: cell-based
[4] = 3 hours pi, 100 μM Roscovitine, 10 μM Lovastatin, 250 μM K252a

Compound	concentrations with obvious cytotoxic effects (HEL cells [1])	effect on HSV replication, single-cycle growth (HSV-1 strain KOS)	effect on virion-induced IE gene expression [2]	Fold-induction of CAT activity [2, 4]	Fold-induction of CAT activity ([2]; 6 hours pi)	Fold-induction of CAT activity ([2]; 9 hours pi)	cells blocked in G0/G1 (HEL cells [3]; 5 μM Lova) [%]	cells arrested in G0/G1 (HEL cells [3]; 20 μM Lova)
COc1cccc(-c2cc(=O)c3ccccc3o2)c1N [PD98059]	higher than 70 μM	did not inhibit HSV replication						
CC[C@H](C)C(=O)O[C@H]1C[C@@H](C)C=C2C=C[C@H](C)[C@H](CC[C@@H]3C[C@@H](O)CC(=O)O3)[C@H]21 [Lova, Lovastatin]		failed to block HSV replication	no effect	1.1 (0.6) fold	1.0 (0.5) fold	1.2 (0.6) fold	~90	about 90%
CN[C@@H]1C[C@H]2O[C@@](C)([C@@H]1OC)n1c3ccccc3c3c4c(c5c6ccccc6n2c5c31)C(=O)NC4 [Staurosporine]		did not block HSV replication significantly						
Cn1cnc2nc(NCCO)nc(NCc3ccccc3)c21 [Iso-Olo, IsoOlomoucine]		no detectable effect						
COC(=O)[C@@]1(O)C[C@H]2O[C@]1(C)n1c3ccccc3c3c4c(c5c6ccccc6n2c5c31)C(=O)NC4 [K252a]			no effect	0.8 (0.4) fold	1.1 (0.3) fold	1.0 (0.3) fold		
